Patent US12522628B2, “Aryl glucoside derivative and use thereof in drug” (SHANGHAI ZHEYE BIOTECHNOLOGY CO. LTD., priority 2020, dated 2026)

Assays:
blood glucose [1] = experiment: Oral glucose tolerance test (OGTT) after consecutive administration in mice; type: in vivo; settings: oral gavage 5 days, OGTT on day 6
Method: (§1) • Experimental animals: SPF male mice; • Compound preparation: an appropriate amount of the compounds of Example 5 was weighed, and uniformly suspended with an appropriate amount of 0.5% CMC-Na solution; • Preparation of glucose solution: an appropriate amount of glucose powder was weighed and dissolved with an appropriate amount of pure water; • Administration and dosage: oral gavage; blank vehicle group, high-dose group (1.6 mg/kg), low-dose group (0.12 mg/kg).
(§2) Experimental process: • (1) The mice were fed a high-sugar diet for 6 days, and then grouped (10 mice in each group) to enter the administration stage; • (2) Example compound 5 was administered at 5:00 pm every day from day 1 to day 5, once a day, and then the animals were fed a high-sugar free diet, and the defecation of the animals was observed. • (3) On day 6, oral glucose tolerance test was performed, and glucose solution (2 g/kg) was orally administered. Blood glucose was detected before (0 min) and 10, 30, and 60 min after giving glucose solution, respectively.

blood glucose [2] = experiment: Oral glucose tolerance test (OGTT) after continuous administration in rats for 14 days; type: in vivo, SD rats; settings: 0.012 mg/kg oral gavage, OGTT on day 15
Method: • Experimental animals: SPF male SD rats; • Compound preparation: an appropriate amount of the compounds of Example 2, Example 3, and Example 5 were weighed, and uniformly suspended with an appropriate amount of 0.5% CMC-Na solution; • Preparation of glucose solution: an appropriate amount of glucose powder was weighed and dissolved with an appropriate amount of pure water; • Dosage and method of administration: 0.012 mg/kg, oral gavage.
(§3) Experimental process: the animals were fed a normal diet with consecutive administration for 14 days, and the glucose tolerance test was performed on day 15, blood glucose was detected before administration (−30 min), before giving glucose (0 min), and 10, 30, 60, and 120 min after giving glucose solution, and the defecation of animals was observed.

[3] = Pharmacokinetic study in rats; type: in vivo, SD rats; settings: 10 mg/kg, oral gavage
Method: • Experimental animals: SPF male SD rats; • Dosage and method of administration: 10 mg/kg, oral gavage.
Research compound: Dapagliflozin, the compound of Example 5, the compound of Example 7, the compound of Comparative Example 6; • Test method: Before administration (0), and 1, 4, 8, and 24 hours after administration, 0.2 ml of blood was collected from orbital venous plexus, anticoagulated with heparin, and plasma was collected.

[4] = Observation of defecation (loose stools) in mice, day 1 to day 5; type: in vivo
Method: as §1, §2

[5] = Observation of defecation (loose stools) in rats during OGTT study; type: in vivo, SD rats; settings: 0.012 mg/kg oral gavage, within 48 hours before and after the experiment
Method: as §3

rat feces suspension = experiment: Intestinal microbial metabolic stability in rat feces suspension; type: in vitro ADME; settings: for Remaining percentage of compound: rat feces suspension, 37 C
Method: Methods: The collected rat feces were processed, and the feces suspension was obtained for the determination of metabolic stability. The mixed reaction system consisting of the rat feces suspension and the compound of Example 5 was incubated at 37 C for 3 h, 6 h, 12 h and 24 h. The compound of Example 5 in the incubation system was analyzed to determine the total amount of remaining compound. Wherein, “+” represents the remaining percentage being: <50%; “++” represents the remaining percentage being: 50% to 70%; “+++” represents the remaining percentage being: 70% to 90%; […].

C#CCN(C)CCNC(=O)CCCc1ccc(Cc2cc([C@@H]3O[C@H](SC)[C@@H](O)[C@H](O)[C@H]3O)ccc2C)cc1 [Example 5]
blood glucose level of mice in OGTT (blood glucose [1]; high-dose group (1.6 mg/kg)): significantly reduce the blood glucose level | blood glucose level of mice in OGTT (blood glucose [1]; low-dose group (0.12 mg/kg)): significantly reduce the blood glucose level | blood sugar level of rats in OGTT (blood glucose [2]): significantly reduce the blood sugar level | absorption in vivo after oral administration (in words) [3]: almost no absorption in vivo | detection in vivo after oral administration (in words) [3]: hardly detected in vivo | bioavailability ([3]; male, SD, rat, plasma, po, read-out: Absolute Bioavailability(F %)): < 1.5% | number of animals with loose stools ([4]; high dose group (1.6 mg/kg), day 1): 1 animal | loose stools (in words) ([4]; high dose group (1.6 mg/kg), day 2 to day 5): did not have loose stools | Statistics of loose stools in animals ([4]; high-dose group (1.6 mg/kg), Day 1, animals with loose stool/animals in group): 1/10 | Statistics of loose stools in animals ([4]; high-dose group (1.6 mg/kg), Day 2): 0/10 | Statistics of loose stools in animals ([4]; high-dose group (1.6 mg/kg), Day 3): 0/10 | Statistics of loose stools in animals ([4]; high-dose group (1.6 mg/kg), Day 4): 0/10 | Statistics of loose stools in animals ([4]; high-dose group (1.6 mg/kg), Day 5): 0/10 | Statistics of loose stools in animals ([4]; low-dose group (0.12 mg/kg), Day 1): 0/10 | Statistics of loose stools in animals ([4]; low-dose group (0.12 mg/kg), Day 2): 0/10 | Statistics of loose stools in animals ([4]; low-dose group (0.12 mg/kg), Day 3): 0/10 | Statistics of loose stools in animals ([4]; low-dose group (0.12 mg/kg), Day 4): 0/10 | Statistics of loose stools in animals ([4]; low-dose group (0.12 mg/kg), Day 5): 0/10 | loose stools (in words) ([4]; low-dose group (0.12 mg/kg), continuous administration for 5 days): did not have loose stools | loose stools in experimental animals [5]: no loose stools were observed | remaining compound (rat feces suspension; incubated with microorganisms in rat feces for about 24 hours): > 70% | Remaining percentage of compound (rat feces suspension; incubation 12 h): +++ (the remaining percentage being: 70% to 90%) | Remaining percentage of compound (rat feces suspension; incubation 24 h): +++ (the remaining percentage being: 70% to 90%)
